In patent US20230265524A1, “IMMUNOGENIC RETROELEMENTS AND THEIR USE IN CANCER THERAPY” (UNIVERSITY HEALTH NETWORK, priority 2020, published 2023):

Columns and labels:
MDA5 = assay: MDA5-protection assay followed by RNA sequencing; assay type: cell-based, human
Description: A-C, Percentage of non-repeats and several families of Repetitive Elements in the total cytoplasmic fraction (‘Total CytoRNA’) and in the MDA5-protected fraction (‘MDA5-protected’) at the mock-treated baseline condition (A) and after 5-AZA-CdR treatment at 300 nM for 5 days, p<2.2e-16 (B). Treatment-induced immunogenic RNAs' refers to transcripts present in 5-AZA-CdR treated condition but not present in the baseline mock-treated condition (i.e. induced by the treatment), p<2.2e-16 (C). Each plot is the average percentage of two replicates. P-values represent the Fisher Exact test for enrichment of SINEs and depletion of non-repeats in immunogenic RNAs (5-AZA-CdR) and Treatment-induced immunogenic RNAs as compared to the MDA5-protected baseline immunogenic RNAs.
D-E, Counts of the expressed Alus in terms of the Log10 Fold change of their MDA5-protected expression over their Total CytoRNA expression. IR-Alus that are MDA5 dsRNA agonists have positive values on the x-axis. […] The color code represents Alus making Inverted Repeats pairs (gray) and Non-IR pairs (black) for Baseline immunogenic RNAs (n=187 Non-IR Alus and 1,602 IR-Alus) (D) and for the Treatment-induced immunogenic RNAs (n=992 Non-IR Alus and 5,199 IR-Alus) (E).
A, Venn-diagram showing the IR-Alu pairs at the Baseline (n=1,040), Immunogenic (5-AZA-CdR) (n=4,482) and Treatment-induced (n=3,687) conditions.
Viral mimicry response to epigenetic therapy is dependent on activation of the MDA5 pattern recognition receptor by endogenous dsRNAs^1,6,8. Therefore, to directly identify drug-induced immunogenic retroelements, we performed an MDA5-protection assay^19, followed by RNA sequencing. […] In contrast, only 1.71% of MDA5-protected RNAs in mock-treated samples were LTRs and 6.40% were LINEs (FIG. 2A). For DNMTi-treated samples, only 1.81% were LTRs and 7.56% were LINEs (FIG. 2B).
Then, to identify the immunogenic retroelements induced only by DNMTi treatment (“Treatment-Induced immunogenic RNAs”), we excluded those that were expressed in both the mock- and DNMTi-treated samples (FIG. 3A). Alu retroelements represented 88.72% of all MDA5-protected RNAs present only in DNMTi treated samples (“Treatment-Induced immunogenic RNAs”) (FIG. 2C). Treatment-induced immunogenic RNAs also included non-repeats (5.15%), LINEs (3.86%) and LTRs elements (1.37%) (FIG. 2C). Overall, our results reveal that while many dsRNA species are induced after DNMTi, Alu elements, but not LTRs/ERVs as previously assumed^1,2,4-6,20, are the major source of immunogenic dsRNA induced upon epigenetic therapy.
To uncover the molecular mechanisms of how repetitive elements generate immunogenic dsRNA, we examined all repeats in MDA5-protected transcripts and searched for repeat pairs within a 3 Kb window. […] Moreover, MDA5-protected RNA contained higher levels of IR-Alus compared to non-IR (direct repeat) Alus (FIG. 2D-E). The expression of baseline IR-Alus was maintained but not enhanced after 5-AZA-CdR treatment (FIG. 2D, FIG. 3D) while treatment-induced IR-Alu hybrids became highly expressed in the MDA5-protected RNA only after treatment with 5-AZA-CdR (FIG. 2E, FIG. 3E). […] Moreover, the majority of IR-Alu pairs were unidirectionally transcribed either in the sense (both repeats in the positive strand: “+/+”) or antisense (both repeats in the negative strand: “−/−”) direction in both baseline (FIG. 2H) and treatment-induced dsRNA (FIG. 2I).

ADAR1 = assay: genome-wide A-to-I editing loci counts in Alus (RNA-seq); assay type: cell-based, human
Excerpt: G, Genome-wide A-to-I editing loci counts in Alus in the RNA-seq data performed in the total cytoplasmic fraction (‘Total CytoRNA’) and in the MDA5-protected fraction (‘MDA5-protected’) at the mock-treated (MT) ADAR1^WT, 5-AZA-CdR-treated ADAR1^WT, mock-treated ADAR1^KD, and 5-AZA-CdR-treated ADAR1^KD conditions.
Next, we tested whether epigenetic therapy can induce and activate ADAR1 editing activity.

[1] = system: patient-derived CRC cells; assay: in vivo LDA measuring tumour-initiation potential; set-up: species or system NSG mice
Description: F Schematic representation of in vivo LDA measuring tumour-initiation potential. NSG mice were injected with 10,000 cells (n=8 tumours), 1,000 cells (n=8 tumours), 100 cells (n=8 tumours) and 10 cells (n=16 tumours).
G, Tumour-initiating cell frequency from the in vivo LDA of patient-derived CRC cells for each condition. ADAR1WT 5-AZA-CdR vs ADAR1KDA 5-AZA-CdR P=0.00862; ADAR1WT 5-AZA-CdR vs ADAR1KDB 5-AZA-CdR P=0.009; chi-square test.
One of the major challenges facing conventional chemotherapy is the persistence of cancer initiating cells (CICs), often resulting in relapse^38-40. We and others have previously shown that 5-AZA-CdR treatment can target colorectal cancer CICs by inducing the viral mimicry response^1,41. We therefore tested whether ADAR1^KD by itself or in combination with 5-AZA-CdR can decrease tumour initiation. To this end, we first employed an in vitro sphere initiation assay followed by limiting dilution analysis (LDA) using patient-derived CRC cells. […] In addition, we performed in vivo tumour initiation assays by injecting serially diluted patient-derived CRC cells into NSG immunodeficient mice and inspected tumour engraftment for up to 6 months after injection (FIG. 12F).

[2] = MDA5-protected RNAs present only in DNMTi treated samples
[3] = MDA5-protected, induced by DNMTi

With `Nc1ncn([C@H]2C[C@H](O)[C@@H](CO)O2)c(=O)n1` [5-AZA-CdR] the “number of IR-Alu pairs, Immunogenic (5-AZA-CdR) condition” value (MDA5; Baseline n=1,040) was 4,482, the “LTRs in MDA5-protected RNAs” value (MDA5; DNMTi-treated samples, mock-treated 1.71%) was 1.81% and the “LINEs in MDA5-protected RNAs” value (MDA5; DNMTi-treated samples, mock-treated 6.40%) was 7.56%. For the same compound, the “Alus in the MDA5-protected RNA” value (MDA5; Immunogenic RNAs (5-AZA-CdR), 300 nM for 5 days, mock-treated 53.03%) was 72.33%, the “Alu retroelements among Treatment-Induced immunogenic RNAs” value (MDA5; [2]) was 88.72% and the “LINEs among Treatment-induced immunogenic RNAs” value (MDA5; [2]) was 3.86%. For the same compound, the “LTRs elements among Treatment-induced immunogenic RNAs” value (MDA5; [2]) was 1.37%, the “non-repeats among Treatment-induced immunogenic RNAs” value (MDA5; [2]) was 5.15% and the “treatment-induced IR-Alu pairs within intergenic regions” value (MDA5; [3]) was 16%. The “treatment-induced IR-Alu pairs within introns” value (MDA5; [3]) was 70%, the “number of IR-Alu pairs, Treatment-induced condition” value (MDA5; present after 5-AZA-CdR, not at baseline) was 3,687 and the “A-to-I editing of MDA5-protected Alus” value (ADAR1; ADAR1-depleted cells) was “depletion of ADAR1 abrogated this effect”. The “A-to-I editing of MDA5-protected Alus” value (ADAR1; ADAR1 WT cells) was “genome-wide increased A-to-I editing”, the “Number of Engrafted tumours/number of injected tumours” value ([1]; ADAR1^KDA, 10 cells injected) was 0/16 and the “Number of Engrafted tumours/number of injected tumours” value ([1]; ADAR1^KDA, 100 cells injected) was 0/8. For the same compound, the “Number of Engrafted tumours/number of injected tumours” value ([1]; ADAR1^KDA, 1,000 cells injected) was 3/8, the “Number of Engrafted tumours/number of injected tumours” value ([1]; ADAR1^KDA, 10,000 cells injected) was 5/8 and the tumour engraftment potential ([1]; ADAR1^KDA/B cells relative to wild-type, up to 6 months) was “substantially reduced tumour engraftment potential”. The “Number of Engrafted tumours/number of injected tumours” value ([1]; ADAR1^KDB, 10 cells injected) was 0/16, the “Number of Engrafted tumours/number of injected tumours” value ([1]; ADAR1^KDB, 100 cells injected) was 0/8 and the “Number of Engrafted tumours/number of injected tumours” value ([1]; ADAR1^KDB, 1,000 cells injected) was 1/8. For the same compound, the “Number of Engrafted tumours/number of injected tumours” value ([1]; ADAR1^KDB, 10,000 cells injected) was 6/8, the “Number of Engrafted tumours/number of injected tumours” value ([1]; ADAR1^WT, 10 cells injected) was 0/16 and the “Number of Engrafted tumours/number of injected tumours” value ([1]; ADAR1^WT, 100 cells injected) was 3/8. For the same compound, the “Number of Engrafted tumours/number of injected tumours” value ([1]; ADAR1^WT, 1,000 cells injected) was 5/8 and the “Number of Engrafted tumours/number of injected tumours” value ([1]; ADAR1^WT, 10,000 cells injected) was 7/8.
